How the values were obtained:
Format in all cases: in vivo
[1] = tested on: barnyardgrass (Echinochloa crus-galli); experiment: Test B flooded paddy test; details: Echinochloa crus-galli, 250 g ai/ha, Flood; 0 to 100 scale where 0 is no effect and 100 is complete control; read-out: Barnyardgrass plant response rating
Procedure, shortened: (§1)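 Compound goes directly into floodwater once pots are flooded 3 cm above soil, targeting plants at two leaves; the water depth is then held for the test duration. Plants sit 13–15 d in a greenhouse and are rated visually, 100 denoting complete control.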

[2] = tested on: rice (Oryra sativa); experiment: Test B flooded paddy test; details: Oryza sativa, 250 g ai/ha, Flood; 0 to 100 scale where 0 is no effect and 100 is complete control; read-out: Rice plant response rating
Procedure, shortened: as §1

[3] = tested on: ducksalad (Heteranthera limosa); experiment: Test B flooded paddy test; details: Heteranthera limosa, 250 g ai/ha, Flood; 0 to 100 scale where 0 is no effect and 100 is complete control; read-out: Ducksalad plant response rating
Procedure, shortened: as §1

[4] = tested on: sedge, umbrella (small-flower umbrella sedge, Cyperus difformis); experiment: Test B flooded paddy test; details: Cyperus difformis, 360 h, Flood, 250 g ai/ha; visually evaluated after 13 to 15 d; read-out: Plant response rating, Sedge, Umbrella (0 to 100 scale where 0 is no effect and 100 is complete control)
Procedure, shortened: as §1

[5] = tested on: barnyardgrass (Echinochloa crus-galli); experiment: Test A postemergence; details: Echinochloa crus-galli, post-emergence, 240 h, Postemergence; for pest or weed control at 125 g/ha: 125 g ai/ha, visual rating about 10 d after treatment, read-out: Barnyardgrass plant response rating (0 to 100 scale, 0 no effect, 100 complete control); for pest or weed control at 500 g/ha: 500 g ai/ha, visual injury, 0 to 100 scale (0 no effect, 100 complete control), approx. 10 d, read-out: Plant response rating, Barnyardgrass
Procedure, shortened: (§2)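 Visual injury, scored on a 0–100 scale relative to untreated controls, was recorded about 10 d after application. Treatments were a preemergence soil spray over planted seeds or a postemergence spray on plants at the one- to two-leaf stage, 2 to 10 cm tall, all in loam soil–sand blend in the greenhouse.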

[6] = tested on: blackgrass (Alopecurus myosuroides); experiment: Test A postemergence; details: Alopecurus myosuroides, post-emergence, 240 h, Postemergence; for pest or weed control at 125 g/ha: 125 g ai/ha, visual rating about 10 d after treatment, read-out: Blackgrass plant response rating (0 to 100 scale); for pest or weed control at 500 g/ha: 500 g ai/ha, visual injury, 0 to 100 scale (0 no effect, 100 complete control), approx. 10 d, read-out: Plant response rating, Blackgrass
Procedure, shortened: as §2

[7] = tested on: ragweed (common ragweed, Ambrosia elatior); experiment: Test A postemergence; details: Ambrosia artemisiifolia, post-emergence, 240 h, Postemergence; for pest or weed control at 125 g/ha: 125 g ai/ha, visual rating about 10 d after treatment, read-out: Ragweed plant response rating (0 to 100 scale); for pest or weed control at 500 g/ha: 500 g ai/ha, visual injury, 0 to 100 scale (0 no effect, 100 complete control), approx. 10 d, read-out: Plant response rating, Ragweed
Procedure, shortened: as §2

[8] = tested on: giant foxtail (Setaria faberii); experiment: Test A postemergence; details: Setaria faberi, post-emergence, 240 h, Postemergence; for pest or weed control at 125 g/ha: 125 g ai/ha, visual rating about 10 d after treatment, read-out: Foxtail, Giant plant response rating (0 to 100 scale); for pest or weed control at 500 g/ha: 500 g ai/ha, visual injury, 0 to 100 scale (0 no effect, 100 complete control), approx. 10 d, read-out: Plant response rating, Foxtail, Giant
Procedure, shortened: as §2

[9] = tested on: Kochia (Kochia scoparia); experiment: Test A postemergence; details: Bassia scoparia, post-emergence, 240 h, Postemergence; for pest or weed control at 125 g/ha: 125 g ai/ha, visual rating about 10 d after treatment, read-out: Kochia plant response rating (0 to 100 scale); for pest or weed control at 500 g/ha: 500 g ai/ha, visual injury, 0 to 100 scale (0 no effect, 100 complete control), approx. 10 d, read-out: Plant response rating, Kochia
Procedure, shortened: as §2

[10] = tested on: ryegrass, Italian (Italian ryegrass, Lolium multiflorum); experiment: Test A postemergence; details: Lolium multiflorum, post-emergence, 240 h, Postemergence; for pest or weed control at 125 g/ha: 125 g ai/ha, visual rating about 10 d after treatment, read-out: Ryegrass, Italian plant response rating (0 to 100 scale); for pest or weed control at 500 g/ha: 500 g ai/ha, visual injury, 0 to 100 scale (0 no effect, 100 complete control), approx. 10 d, read-out: Plant response rating, Ryegrass, Italian
Procedure, shortened: as §2

[11] = tested on: Galium (catchweed bedstraw, Galium aparine); experiment: Test A postemergence; details: Galium, post-emergence, 240 h, Postemergence; for pest or weed control at 125 g/ha: 125 g ai/ha, visual rating about 10 d after treatment, read-out: Galium plant response rating (0 to 100 scale); for pest or weed control at 500 g/ha: 500 g ai/ha, visual injury, 0 to 100 scale (0 no effect, 100 complete control), approx. 10 d, read-out: Plant response rating, Galium
Procedure, shortened: as §2

[12] = tested on: pigweed (Amaranthus retroflexus); experiment: Test A postemergence; details: Amaranthus retroflexus, post-emergence, 240 h, Postemergence; for pest or weed control at 125 g/ha: 125 g ai/ha, visual rating about 10 d after treatment, read-out: Pigweed plant response rating (0 to 100 scale); for pest or weed control at 500 g/ha: 500 g ai/ha, visual injury, 0 to 100 scale (0 no effect, 100 complete control), approx. 10 d, read-out: Plant response rating, Pigweed
Procedure, shortened: as §2

[13] = tested on: corn (Zea mays); experiment: Test A postemergence; details: Zea mays, post-emergence, 240 h, Postemergence; for plant injury at 125 g/ha: 125 g ai/ha, visual rating about 10 d after treatment, read-out: Corn plant response rating (0 to 100 scale); for Corn plant response rating (crop injury, 0 = no effect, 100 = complete kill) at 500 g/ha: 500 g ai/ha, visual injury, 0 to 100 scale (0 no effect, 100 complete control), approx. 10 d
Procedure, shortened: as §2

[14] = tested on: wheat (Triticum aestivum); experiment: Test A postemergence; details: Triticum aestivum, post-emergence, 240 h, Postemergence; for plant injury at 125 g/ha: 125 g ai/ha, visual rating about 10 d after treatment, read-out: Wheat plant response rating (0 to 100 scale); for plant injury at 500 g/ha: 500 g ai/ha, visual injury, 0 to 100 scale (0 no effect, 100 complete control), approx. 10 d, read-out: Plant response rating, Wheat
Procedure, shortened: as §2

## CN1C[C@H](c2cccc(C(C)(F)F)c2)[C@@H](C(=O)Nc2cccc(F)c2F)C1=O [Compound 1316]
[1]
  pest or weed control at 250 g/ha: 75%
[2]
  pest or weed control at 250 g/ha: 0%
[3]
  pest or weed control at 250 g/ha: 90%
[4]
  pest or weed control at 250 g/ha: 0%
[5]
  pest or weed control at 125 g/ha: 90%
  pest or weed control at 500 g/ha: 90%
[6]
  pest or weed control at 125 g/ha: 70%
  pest or weed control at 500 g/ha: 80%
[7]
  pest or weed control at 125 g/ha: 30%
  pest or weed control at 500 g/ha: 70%
[8]
  pest or weed control at 125 g/ha: 90%
  pest or weed control at 500 g/ha: 90%
[9]
  pest or weed control at 125 g/ha: 30%
  pest or weed control at 500 g/ha: 40%
[10]
  pest or weed control at 125 g/ha: 50%
  pest or weed control at 500 g/ha: 80%
[11]
  pest or weed control at 125 g/ha: 60%
  pest or weed control at 500 g/ha: 60%
[12]
  pest or weed control at 125 g/ha: 50%
  pest or weed control at 500 g/ha: 60%
[13]
  plant injury at 125 g/ha: 80%
  Corn plant response rating (crop injury, 0 = no effect, 100 = complete kill) at 500 g/ha: 80%
[14]
  plant injury at 125 g/ha: 60%
  plant injury at 500 g/ha: 80%

## CN1C[C@H](c2cccc(C(C)(F)F)c2)[C@@H](C(=O)Nc2ccccc2F)C1=O [Compound 1317]
[1]
  pest or weed control at 250 g/ha: 85%
[2]
  pest or weed control at 250 g/ha: 0%
[3]
  pest or weed control at 250 g/ha: 100%
[4]
  pest or weed control at 250 g/ha: 0%
[5]
  pest or weed control at 125 g/ha: 90%
  pest or weed control at 500 g/ha: 90%
[6]
  pest or weed control at 125 g/ha: 80%
  pest or weed control at 500 g/ha: 80%
[7]
  pest or weed control at 125 g/ha: 0%
  pest or weed control at 500 g/ha: 20%
[8]
  pest or weed control at 125 g/ha: 90%
  pest or weed control at 500 g/ha: 90%
[9]
  pest or weed control at 125 g/ha: 20%
  pest or weed control at 500 g/ha: 30%
[10]
  pest or weed control at 125 g/ha: 40%
  pest or weed control at 500 g/ha: 80%
[11]
  pest or weed control at 125 g/ha: 60%
  pest or weed control at 500 g/ha: 60%
[12]
  pest or weed control at 125 g/ha: 30%
  pest or weed control at 500 g/ha: 20%
[13]
  plant injury at 125 g/ha: 80%
  Corn plant response rating (crop injury, 0 = no effect, 100 = complete kill) at 500 g/ha: 80%
[14]
  plant injury at 125 g/ha: 60%
  plant injury at 500 g/ha: 60%

## CN1C[C@H](c2cccc(C(C)(F)F)c2)[C@@H](C(=O)Nc2ccccc2S(C)(=O)=O)C1=O [Compound 1318]
[1]
  pest or weed control at 250 g/ha: 65%
[2]
  pest or weed control at 250 g/ha: 0%
[3]
  pest or weed control at 250 g/ha: 85%
[4]
  pest or weed control at 250 g/ha: 0%
[5]
  pest or weed control at 125 g/ha: 80%
  pest or weed control at 500 g/ha: 90%
[6]
  pest or weed control at 125 g/ha: 70%
  pest or weed control at 500 g/ha: 70%
[7]
  pest or weed control at 125 g/ha: 10%
  pest or weed control at 500 g/ha: 60%
[8]
  pest or weed control at 125 g/ha: 90%
  pest or weed control at 500 g/ha: 90%
[9]
  pest or weed control at 125 g/ha: 0%
  pest or weed control at 500 g/ha: 40%
[10]
  pest or weed control at 125 g/ha: 20%
  pest or weed control at 500 g/ha: 40%
[11]
  pest or weed control at 125 g/ha: 60%
  pest or weed control at 500 g/ha: 60%
[12]
  pest or weed control at 125 g/ha: 30%
  pest or weed control at 500 g/ha: 40%
[13]
  plant injury at 125 g/ha: 60%
  Corn plant response rating (crop injury, 0 = no effect, 100 = complete kill) at 500 g/ha: 80%
[14]
  plant injury at 125 g/ha: 50%
  plant injury at 500 g/ha: 80%

## CS(=O)(=O)c1ccccc1NC(=O)[C@H]1C(=O)NC[C@@H]1c1ccc2c(c1)CCO2 [Compound 1320]
[1]
  pest or weed control at 250 g/ha: 0%
[2]
  pest or weed control at 250 g/ha: 0%
[3]
  pest or weed control at 250 g/ha: 50%
[4]
  pest or weed control at 250 g/ha: 0%
[5]
  pest or weed control at 125 g/ha: 0%
  pest or weed control at 500 g/ha: 50%
[6]
  pest or weed control at 125 g/ha: 0%
  pest or weed control at 500 g/ha: 0%
[7]
  pest or weed control at 125 g/ha: 0%
  pest or weed control at 500 g/ha: 0%
[8]
  pest or weed control at 125 g/ha: 0%
  pest or weed control at 500 g/ha: 20%
[9]
  pest or weed control at 125 g/ha: 0%
  pest or weed control at 500 g/ha: 0%
[10]
  pest or weed control at 125 g/ha: 0%
  pest or weed control at 500 g/ha: 0%
[11]
  pest or weed control at 125 g/ha: 30%
  pest or weed control at 500 g/ha: 40%
[12]
  pest or weed control at 125 g/ha: 0%
  pest or weed control at 500 g/ha: 0%
[13]
  plant injury at 125 g/ha: 0%
  Corn plant response rating (crop injury, 0 = no effect, 100 = complete kill) at 500 g/ha: 0%
[14]
  plant injury at 125 g/ha: 0%
  plant injury at 500 g/ha: 0%

## CN1C[C@H](c2ccc3c(c2)CCO3)[C@@H](C(=O)Nc2ccc(F)c(F)c2F)C1=O [Compound 1323]
[1]
  pest or weed control at 250 g/ha: 90%
[2]
  pest or weed control at 250 g/ha: 10%
[3]
  pest or weed control at 250 g/ha: 85%
[4]
  pest or weed control at 250 g/ha: 0%
[5]
  pest or weed control at 125 g/ha: 90%
  pest or weed control at 500 g/ha: 90%
[6]
  pest or weed control at 125 g/ha: 50%
  pest or weed control at 500 g/ha: 60%
[7]
  pest or weed control at 125 g/ha: 0%
  pest or weed control at 500 g/ha: 50%
[8]
  pest or weed control at 125 g/ha: 90%
  pest or weed control at 500 g/ha: 90%
[9]
  pest or weed control at 125 g/ha: 0%
  pest or weed control at 500 g/ha: 70%
[10]
  pest or weed control at 125 g/ha: 40%
  pest or weed control at 500 g/ha: 70%
[11]
  pest or weed control at 125 g/ha: 50%
  pest or weed control at 500 g/ha: 60%
[12]
  pest or weed control at 125 g/ha: 0%
  pest or weed control at 500 g/ha: 0%
[13]
  plant injury at 125 g/ha: 50%
  Corn plant response rating (crop injury, 0 = no effect, 100 = complete kill) at 500 g/ha: 70%
[14]
  plant injury at 125 g/ha: 50%
  plant injury at 500 g/ha: 70%

— patent publication US12077503B2, “Substituted cyclic amides and their use as herbicides” (FMC CORPORATION, priority 2015, dated 2024)
